A word on the inhibition: it is the percentage by which the read-out fell short of the control. In general, IC50 refers to the concentration that gives 50% inhibition.

Holding throughout (assay): In vitro competitive activity-based protein profiling (gel-based, FP-Rh or HT-01 probe)
Type in all cases: biochemical

One assay addresses T1, ABHD6 (Mus musculus, UniProt Q8R2Y0).
T1 construct: Proteomes (mouse brain membrane fraction or cell lysates); from tissue; host or cells: mouse brain membrane fraction (or cell lysates, not specified)
T1 sequence (Q8R2Y0 1-336): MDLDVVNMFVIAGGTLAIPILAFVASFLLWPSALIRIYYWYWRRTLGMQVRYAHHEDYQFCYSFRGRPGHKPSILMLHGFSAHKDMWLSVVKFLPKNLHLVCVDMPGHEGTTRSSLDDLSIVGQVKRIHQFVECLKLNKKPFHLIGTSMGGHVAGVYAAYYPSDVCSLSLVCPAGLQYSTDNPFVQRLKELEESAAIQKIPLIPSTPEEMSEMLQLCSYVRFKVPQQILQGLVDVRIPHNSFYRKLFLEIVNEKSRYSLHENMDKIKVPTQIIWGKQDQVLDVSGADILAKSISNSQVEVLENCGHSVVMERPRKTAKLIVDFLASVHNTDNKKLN
The conditions noted are these: for inhibition at 1 µM: 1 μM inhibitor, read-out: % Inhibition at 1 μM, C = ABHD6; for inhibition at 10 µM: 10 μM inhibitor, read-out: % Inhibition at 10 μM, C = ABHD6; for IC50: mouse brain membrane fraction or cell lysates, 30 min preincubation at 37° C., read-out: Mouse (IC50 value, nM) ABHD6. The method, boiled down:
(§1)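 Competitive labelling format in mouse brain membrane fractions or lysates at 1.0 mg/mL total protein: compounds preincubate 30 min at 37° C, activity probe FP-Rh or HT-01 then reacts 30 min at 37° C. Gel band fluorescence gives target activity.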

The target in a further assay is T2, FAAH (Mus musculus, UniProt O08914).
T2 construct: Proteomes (mouse brain membrane fraction or cell lysates); from tissue; host or cells: mouse brain membrane fraction (or cell lysates, not specified)
T2 sequence (O08914 1-579): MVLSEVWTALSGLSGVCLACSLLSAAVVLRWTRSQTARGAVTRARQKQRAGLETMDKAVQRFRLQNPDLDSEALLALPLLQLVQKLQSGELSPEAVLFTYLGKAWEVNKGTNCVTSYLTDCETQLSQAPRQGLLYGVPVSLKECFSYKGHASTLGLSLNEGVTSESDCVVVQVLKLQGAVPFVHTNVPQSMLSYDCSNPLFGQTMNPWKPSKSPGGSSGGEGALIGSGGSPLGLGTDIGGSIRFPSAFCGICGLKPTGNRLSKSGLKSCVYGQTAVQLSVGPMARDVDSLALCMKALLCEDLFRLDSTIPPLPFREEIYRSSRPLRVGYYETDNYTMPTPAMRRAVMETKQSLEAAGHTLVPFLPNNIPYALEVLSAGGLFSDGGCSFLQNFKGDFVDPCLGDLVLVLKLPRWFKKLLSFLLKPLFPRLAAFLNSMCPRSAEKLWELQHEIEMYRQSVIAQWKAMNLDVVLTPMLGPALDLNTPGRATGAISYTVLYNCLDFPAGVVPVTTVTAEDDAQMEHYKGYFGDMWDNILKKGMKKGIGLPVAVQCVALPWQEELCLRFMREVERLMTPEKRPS
The conditions noted are these: for inhibition at 1 µM: 1 μM inhibitor, read-out: % Inhibition at 1 μM, B = FAAH; for inhibition at 10 µM: 10 μM inhibitor, read-out: % Inhibition at 10 μM, B = FAAH; for IC50: mouse brain membrane fraction or cell lysates, 30 min preincubation at 37° C., read-out: Mouse (IC50 value, nM) FAAH. The method, boiled down:
as §1

The target of the next assay is T3, MAGL (Mus musculus, UniProt O35678).
T3 construct: Proteomes (mouse brain membrane fraction or cell lysates); from tissue; host or cells: mouse brain membrane fraction (or cell lysates, not specified)
T3 sequence (O35678 1-303): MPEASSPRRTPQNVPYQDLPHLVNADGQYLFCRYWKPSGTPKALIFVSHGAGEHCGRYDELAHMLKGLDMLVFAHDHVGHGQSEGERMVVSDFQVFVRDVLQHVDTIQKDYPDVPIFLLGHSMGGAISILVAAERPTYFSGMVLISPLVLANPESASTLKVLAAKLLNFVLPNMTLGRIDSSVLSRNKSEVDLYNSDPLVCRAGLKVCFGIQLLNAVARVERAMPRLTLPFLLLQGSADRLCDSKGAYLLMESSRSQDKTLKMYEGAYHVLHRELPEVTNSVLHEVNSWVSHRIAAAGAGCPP
To be noted: for inhibition at 1 µM: 1 μM inhibitor; for inhibition at 10 µM: 10 μM inhibitor; for IC50: mouse brain membrane fraction or cell lysates, 30 min preincubation at 37° C., read-out: Mouse (IC50 value, nM) MAGL. The method, boiled down: as §1

The target in another assay is T4, PLA2G7 (Mus musculus, UniProt Q60963).
T4 construct: Proteomes (mouse brain membrane fraction or cell lysates); from tissue; host or cells: mouse brain membrane fraction (or cell lysates, not specified)
T4 sequence (Q60963 22-440): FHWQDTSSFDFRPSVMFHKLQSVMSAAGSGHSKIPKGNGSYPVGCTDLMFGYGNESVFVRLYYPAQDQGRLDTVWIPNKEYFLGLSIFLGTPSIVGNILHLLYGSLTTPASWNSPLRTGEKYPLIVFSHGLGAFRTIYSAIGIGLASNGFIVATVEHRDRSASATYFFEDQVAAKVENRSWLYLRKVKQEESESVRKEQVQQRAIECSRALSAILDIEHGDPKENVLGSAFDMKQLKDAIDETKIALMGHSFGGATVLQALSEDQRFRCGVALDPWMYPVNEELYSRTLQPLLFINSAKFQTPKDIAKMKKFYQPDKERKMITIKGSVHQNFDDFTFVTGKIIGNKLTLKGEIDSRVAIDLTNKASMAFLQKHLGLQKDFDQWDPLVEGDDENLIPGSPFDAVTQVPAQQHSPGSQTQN
To be noted: for inhibition at 1 µM: 1 μM inhibitor, read-out: % Inhibition at 1 μM, D = PLA2G7; for inhibition at 10 µM: 10 μM inhibitor, read-out: % Inhibition at 10 μM, D = PLA2G7; for IC50: mouse brain membrane fraction or cell lysates, 30 min preincubation at 37° C. The method, boiled down: as §1

Molecules are shown by their SMILES. Where two headings read alike, the source gives them in different places.

In the case of `CC(C)(C)OC(=O)N1CCCN(C(=O)n2cccn2)CC1` [Example 25, tert-Butyl 4-(1H-pyrazole-1-carbonyl)-1,4-diazepane-1-carboxylate], the inhibition at 1 µM on ABHD6, on FAAH, on MAGL and at PLA2G7 was under 25% in each case. Besides, the inhibition at 10 µM on ABHD6 was 25 to 75%; at FAAH, under 25%; on MAGL it was under 25%; on PLA2G7 it was under 25%.

Turning to `N#Cc1cnn(C(=O)N2CCN(Cc3cccc(Oc4ccccc4)c3)CC2)c1` [Example 295, 1-(4-(3-Phenoxybenzyl)piperazine-1-carbonyl)-1H-pyrazole-4-carbonitrile], the inhibition at 1 µM is over 75% at ABHD6 (gel-based competitive ABPP), over 75% at FAAH (gel-based competitive ABPP), over 75% on MAGL (gel-based competitive ABPP) and under 25% at PLA2G7 (gel-based competitive ABPP).

As to `O=C(N1CCN(Cc2ccccn2)CC1)n1cc(-c2ccccc2)cn1` [Example 61, (4-Phenyl-1H-pyrazol-1-yl)(4-(pyridin-2-ylmethyl)piperazin-1-yl)methanone], the inhibition at 1 µM on ABHD6 and at PLA2G7 was over 75% in each case. The inhibition at 10 µM on ABHD6 is over 75%; at FAAH, over 75%; at MAGL, under 25%; on PLA2G7, over 75%.

With `O=C(N1CCN(c2cccc(N3CCCC3)c2)CC1)n1cc(C(F)(F)F)cn1` [Example 240, (4-(3-(Pyrrolidin-1-yl)phenyl)piperazin-1-yl)(4-(trifluoromethyl)-1H-pyrazol-1-yl)methanone], the inhibition at 1 µM on ABHD6, on FAAH, at MAGL and on PLA2G7 was over 75% in each case. For the same compound, the inhibition at 10 µM on ABHD6, at FAAH, at MAGL and at PLA2G7 was over 75% throughout.

As for `N#Cc1cnn(C(=O)Nc2ccc3ccccc3c2)c1` [Example 42, 4-Cyano-N-(naphthalen-2-yl)-1H-pyrazole-1-carboxamide], the inhibition at 1 µM at ABHD6, at FAAH, at MAGL and on PLA2G7 was under 25% throughout. The inhibition at 10 µM on ABHD6 was under 25%; at FAAH, under 25%; at MAGL, over 75%; at PLA2G7, under 25%.

Consider `O=C(N1CCN(Cc2ccc(-c3ccccc3)cc2Cl)CC1)n1cc(C(F)(F)F)cn1` [Example 143, (4-((3-Chlorobiphenyl-4-yl)methyl)piperazin-1-yl)(4-(trifluoromethyl)-1H-pyrazol-1-yl)methanone], for which the inhibition at 1 µM on ABHD6 was over 75%; on FAAH it was over 75%; on MAGL, over 75%; on PLA2G7 it was 25 to 75%. Also, the inhibition at 10 µM at ABHD6, at FAAH, on MAGL and at PLA2G7 was over 75% throughout. The figures for the concentration for half-maximal inhibition (IC50) at ABHD6, at FAAH and on MAGL were 100 to 1000 nM, under 100 nM and under 100 nM, respectively.

Turning to `O=C(N1CCCN(Cc2ccccc2)CC1)n1cc(C(F)(F)F)cn1` [Example 157, (4-Benzyl-1,4-diazepan-1-yl)(4-(trifluoromethyl)-1H-pyrazol-1-yl)methanone], the inhibition at 1 µM at ABHD6 is over 75%; at FAAH it was over 75%; on MAGL, over 75%; at PLA2G7 it was under 25%. Moreover, the inhibition at 10 µM on ABHD6, on FAAH, on MAGL and on PLA2G7 was over 75% each time. Moreover, the concentration for half-maximal inhibition (IC50) on ABHD6 is over 1000 nM; at FAAH it was 100 to 1000 nM; on MAGL, over 1000 nM; on PLA2G7, over 1000 nM.

In the case of `CC(=O)N(C)CCN(C)C(=O)n1cc(C(F)(F)F)cn1` [Example 159, N-Methyl-N-(2-(N-methylacetamido)ethyl)-4-(trifluoromethyl)-1H-pyrazole-1-carboxamide], the inhibition at 1 µM at ABHD6, at FAAH, on MAGL and at PLA2G7 was under 25% in each case. The inhibition at 10 µM at ABHD6 is over 75%; on FAAH, 25 to 75%; on MAGL, under 25%; at PLA2G7, over 75%.

On to `CCN(Cc1cccc(Cl)c1)C(=O)n1cc(C(F)(F)F)cn1` [Example 244, N-(3-Chlorobenzyl)-N-ethyl-4-(trifluoromethyl)-1H-pyrazole-1-carboxamide], for which the inhibition at 1 µM at ABHD6 is 25 to 75%; at FAAH, over 75%; on MAGL, 25 to 75%; at PLA2G7, under 25%. Also, the 50% inhibitory concentration (IC50) at ABHD6 was over 1000 nM; at FAAH it was under 100 nM; at MAGL, over 1000 nM; at PLA2G7 it was over 1000 nM.

As to `O=C(N1CCN(Cc2ccc(C(F)(F)F)cc2)CC1)n1cc(Cl)cn1` [Example 213, (4-Chloro-1H-pyrazol-1-yl)(4-(4-(trifluoromethyl)benzyl)piperazin-1-yl)methanone], the inhibition at 1 µM at ABHD6 was over 75%; on FAAH, over 75%; at MAGL it was over 75%; at PLA2G7, under 25%. Besides, the inhibition at 10 µM at ABHD6, at FAAH, on MAGL and at PLA2G7 was over 75% each time. Besides, the 50% inhibitory concentration (IC50) is under 100 nM on ABHD6, under 100 nM on FAAH, under 100 nM at MAGL and 100 to 1000 nM on PLA2G7.

With `N#Cc1cnn(C(=O)N2CCCN(Cc3ccccc3)CC2)c1` [Example 179, 1-(4-Benzyl-1,4-diazepane-1-carbonyl)-1H-pyrazole-4-carbonitrile], the inhibition at 1 µM on ABHD6 is over 75%; at FAAH, over 75%; at MAGL it was over 75%; at PLA2G7 it was under 25%. Moreover, the inhibition at 10 µM at ABHD6, at FAAH, at MAGL and at PLA2G7 was over 75% throughout. Moreover, the IC50 on ABHD6 was over 1000 nM; at FAAH, under 100 nM; at MAGL, over 1000 nM; at PLA2G7, over 1000 nM.

(Values after patent publication US10093630B2, “Pyrazole compounds and methods of making and using same” (ABIDE THERAPEUTICS, INC., priority 2014, dated 2018).)
